Measurements: patent publication US20060252930A1 (priority 2003, published 2006)
Where “and” joins values, the source holds several entries; their conditions need not be identical. Equal values may be shown once. Read-outs that look alike come from different tables or passages of the source.

Experiments:
[1] = test system: Candida albicans ATCC 64548; experiment: Enhancing activity of azole antifungal agent, yeast susceptibility test NCCLS M27-A; type: cell-based; settings: for enhancing action of the activity of azole antifungal agent (in words): C. albicans ATCC64548, summary statement; for Ratio (enhancing activity): IC50 without addition set as 1.0
Experimental: (§1) Candida albicans ATCC 64548, fluconazole resistant Candida albicans ATCC 64550 and Aspergillus niger ATCC 6275 were used as test organisms.
(§2) Enhancing activity of azole antifungal agent on Candida albicans ATCC 64548 and ATCC 64550 was determined by yeast susceptibility test method, National Committee for Clinical Standard (NCCLS) Standard Method M27-A. Each suspension of inoculating strain was spread over YM agar medium (0.5% yeast extract, 0.5% malt extract, 0.5% peptone, 1% glucose and 1.5% agar) and cultured at 35° C. for 36 hours. Five grown colonies with a diameter 1 mm or more were collected and the colonies were suspended in physiological saline 5 ml. The suspension was further diluted with physiological saline to prepare the test microorganism suspension having McFarland transmittance 0.5. RPMI 1640 medium 70 μl was added into 96 well plastic plate (Corning Inc., U.S.). […] Finally, the test microorganism suspension 100 μl was added and incubated at 35° C. for 24 hours. […] When IC50 value without addition of FKI-1366 substance A, FKI-1366 substance B or FKI-1366 substance C was set as 1.0, a ratio of IC50 with addition of FKI-1366 substance A, FKI-1366 substance B or FKI-1366 substance C was determined as the enhancing activity.

Solubility in solvents = type: physicochemical
[2] = test system: Aspergillus niger ATCC 6275; experiment: Enhancing activity of azole antifungal agent, susceptibility test for conidiogenous fungi NCCLS M38-P (Alamar Blue); type: cell-based; settings: for enhancing action of the activity of azole antifungal agent (in words): Aspergillus niger ATCC 6275, summary statement
Experimental: as §1
Enhancing activity of azole antifungal agent on Aspergillus niger ATCC 6275 was determined by the drug susceptibility test method for conidiogenous fungi proposed by NCCLS (M38-P). Spores of the strain of Aspergillus niger ATCC 6275 were suspended in the physiological saline to maintain a value at OD 530 nm being 0.09-0.11. The suspension was further diluted 100 times with PRMI1640 medium to prepare inoculating microorganism solution. […] Further, FKI-1366 substance A, FKI-1366 substance B or FKI-1366 substance C, 10 μl, each of which was prepared for maintaining the final concentration of 2.5, 5.0 and 10 μg/ml, was added. Finally, the test microorganism suspension 80 μl was added. Alamar Blue solution (Asahi Glass Co., Japan) 20 μl, a coloring reagent, was added thereto and incubated at 35° C. for 24 hours. […] When IC50 value without addition of FKI-1366 substance A, FKI-1366 substance B or FKI-1366 substance C was set as 1.0, a ratio of IC50 with addition of FKI-1366 substance A, FKI-1366 substance B or FKI-1366 substance C was determined as the enhancing activity.

[3] = test system: fluconazole resistant Candida albicans ATCC 64550; type: cell-based; settings: for Ratio (enhancing activity): IC50 without addition set as 1.0; for enhancing action of the activity of azole antifungal agent (in words): fluconazole resistant C. albicans ATCC64550, summary statement
Experimental: as §1, §2

[4] = Table 1, miconazole + FKI-1366 substance 0.5 μg/ml
[5] = Table 1, miconazole + FKI-1366 substance 1.0 μg/ml
[6] = Table 1, miconazole + FKI-1366 substance 2.0 μg/ml
[7] = Table 2 (fluconazole) + FKI-1366 substance 0.5 μg/ml
[8] = Table 2 (fluconazole) + FKI-1366 substance 1.0 μg/ml
[9] = Table 2 (fluconazole) + FKI-1366 substance 2.0 μg/ml
[10] = DMSO, methanol, chloroform and ethyl acetate
[11] = Table 1, miconazole + FKI-1366 substance 2.5 μg/ml, IC50 without addition set as 1.0
[12] = Table 1, miconazole + FKI-1366 substance 5.0 μg/ml, IC50 without addition set as 1.0
[13] = Table 1, miconazole + FKI-1366 substance 10 μg/ml, IC50 without addition set as 1.0
[14] = Table 2 (fluconazole) + FKI-1366 substance 2.5 μg/ml, IC50 without addition set as 1.0
[15] = Table 2 (fluconazole) + FKI-1366 substance 5.0 μg/ml, IC50 without addition set as 1.0
[16] = Table 2 (fluconazole) + FKI-1366 substance 10 μg/ml, IC50 without addition set as 1.0

SMILES | enhancing action of the activity of azole antifungal agent (in words) [1] | Ratio (enhancing activity) [1, 4] | Ratio (enhancing activity) [1, 5] | Ratio (enhancing activity) [1, 6] | Ratio (enhancing activity) [1, 7] | Ratio (enhancing activity) [1, 8] | Ratio (enhancing activity) [1, 9] | Solubility in solvents (Solubility in solvents; [10]) | Solubility in solvents (Solubility in solvents; water and n-hexane) | enhancing action of the activity of azole antifungal agent (in words) [2] | Ratio (enhancing activity) [2, 11] | Ratio (enhancing activity) [2, 12] | Ratio (enhancing activity) [2, 13] | Ratio (enhancing activity) [3, 4] | Ratio (enhancing activity) [3, 5] | Ratio (enhancing activity) [3, 6] | Ratio (enhancing activity) [3, 7] | Ratio (enhancing activity) [3, 8] | Ratio (enhancing activity) [3, 9] | enhancing action of the activity of azole antifungal agent (in words) [3] | further results
CC(C)C1OC(=O)C(Cc2ccccc2)N(C)C(=O)C(C(C)C)OC(=O)C(Cc2ccccc2)N(C)C(=O)C(C(C)C)OC(=O)C(Cc2ccccc2)NC1=O (stereo not shown) [FKI-1366 substance A] | enhancing action | 1.0 | 1.4 | >55 | 1.0 | 1.4 | >55 | Soluble | Slightly soluble | enhancing action | 5.5 | 9.6 | 10.9 | 1.2 | 5.0 | >60 | 1.2 | 5.0 | >60 | enhancing action | Ratio (enhancing activity) [2, 14]: 5.5; Ratio (enhancing activity) [2, 15]: 9.6; Ratio (enhancing activity) [2, 16]: 10.9
CC(C)CC1NC(=O)C(C(C)C)OC(=O)C(Cc2ccccc2)N(C)C(=O)C(C(C)C)OC(=O)C(Cc2ccccc2)N(C)C(=O)C(C(C)C)OC1=O (stereo not shown) [FKI-1366 substance B] | enhancing action | 1.7 | 6.0 | >55 |  |  |  | Soluble | Slightly soluble | enhancing action | 1.8 | 2.4 | 3.5 | 1.4 | 4.2 | >60 | 1.4 | 4.2 | >60 | enhancing action | Ratio (enhancing activity) [2]: 1.8 and 2.4 and 3.5
CC(C)CC1OC(=O)C(Cc2ccccc2)N(C)C(=O)C(C(C)C)OC(=O)C(Cc2ccccc2)N(C)C(=O)C(C(C)C)OC(=O)C(Cc2ccccc2)N(C)C1=O (stereo not shown) [FKI-1366 substance C] | enhancing action | 1.0 | 2.5 | >55 | 1.0 | 2.5 | >55 | Soluble | Slightly soluble | enhancing action | 5.2 | 8.0 | 11.0 | 1.0 | 1.1 | 3.9 | 1.0 | 1.1 | 3.9 | enhancing action | Ratio (enhancing activity) [2, 14]: 5.2; Ratio (enhancing activity) [2, 15]: 8.0; Ratio (enhancing activity) [2, 16]: 11.0
